How the values were obtained:
Enterococcus faecium [1] = assay: Antimicrobial activity against extended spectrum-lactamase-carbapenemas producing Enterococcus faecium strain 50758899 assessed as reduction in bacterial growth incubated for 48 hrs by microdilution method; format: functional
Pseudomonas aeruginosa [2] = assay: Antimicrobial activity against verona integron-encoded metallo-beta-lactamase-2 producing Pseudomonas aeruginosa K34-7 assessed as reduction in bacterial growth incubated for 48 hrs by microdilution method; format: functional
Staphylococcus aureus [3] = assay: Antimicrobial activity against extended spectrum-lactamase-carbapenemas producing Staphylococcus aureus N315 assessed as reduction in bacterial growth incubated for 48 hrs by microdilution method; format: functional
Acinetobacter baumannii [4] = assay: Antimicrobial activity against oxacillinase-58 producing Acinetobacter baumannii K12-21 assessed as reduction in bacterial growth incubated for 48 hrs by microdilution method; format: functional
HepG2 = assay: Cytotoxicity against human HepG2 cells assessed as reduction in cell viability incubated for 24 hrs by colorimetric tetrazolium assay; format: functional, cell-based; conditions: HepG2, 24 h
Escherichia coli [5] = assay: Antimicrobial activity against verona integron-encoded metallo-beta-lactamase-29-producing Escherichia coli 50639799 assessed as reduction in bacterial growth incubated for 48 hrs by microdilution method; format: functional
Escherichia coli [6] = assay: Antimicrobial activity against Escherichia coli ATCC 25922 assessed as reduction in bacterial growth incubated for 48 hrs by microdilution susceptibility test; format: functional
Acinetobacter baumannii [7] = assay: Antimicrobial activity against oxacillinase-24 producing Acinetobacter baumannii K55-13 assessed as reduction in bacterial growth incubated for 48 hrs by microdilution method; format: functional
Escherichia coli [8] = assay: Antimicrobial activity against oxacillinase-producing Escherichia coli 50579417 assessed as reduction in bacterial growth incubated for 48 hrs by microdilution method; format: functional
Pseudomonas aeruginosa [9] = assay: Antimicrobial activity against New Delhi metallo-beta lactamase-1 producing Pseudomonas aeruginosa 50692172 assessed as reduction in bacterial growth incubated for 48 hrs by microdilution method; format: functional
Staphylococcus aureus [10] = assay: Antimicrobial activity against Staphylococcus aureus ATCC 9144 assessed as reduction in bacterial growth incubated for 48 hrs by microdilution susceptibility test; format: functional
Escherichia coli [11] = assay: Antimicrobial activity against imipenem-type carbapenemase-26 producing Escherichia coli 50857972 assessed as reduction in bacterial growth incubated for 48 hrs by microdilution method; format: functional
Acinetobacter baumannii [12] = assay: Antimicrobial activity against oxacillinase-23 producing Acinetobacter baumannii K44-35 assessed as reduction in bacterial growth incubated for 48 hrs by microdilution method; format: functional
Pseudomonas aeruginosa [13] = assay: Antimicrobial activity against imipenem-type carbapenemase-14 producing Pseudomonas aeruginosa K44-24 assessed as reduction in bacterial growth incubated for 48 hrs by microdilution method; format: functional
Acinetobacter baumannii [14] = assay: Antimicrobial activity against oxacillinase-23 producing Acinetobacter baumannii K47-42 assessed as reduction in bacterial growth incubated for 48 hrs by microdilution method; format: functional
Enterococcus faecium [15] = assay: Antimicrobial activity against extended spectrum-lactamase-carbapenemas producing Enterococcus faecium strain 50673722 assessed as reduction in bacterial growth incubated for 48 hrs by microdilution method; format: functional
Enterococcus faecium [16] = assay: Antimicrobial activity against extended spectrum-lactamase-carbapenemas producing Enterococcus faecium strain 50901530 assessed as reduction in bacterial growth incubated for 48 hrs by microdilution method; format: functional
Staphylococcus aureus [17] = assay: Antimicrobial activity against extended spectrum-lactamase-carbapenemas producing Staphylococcus aureus NCTC 10442 assessed as reduction in bacterial growth incubated for 48 hrs by microdilution method; format: functional
Staphylococcus aureus [18] = assay: Antimicrobial activity against extended spectrum-lactamase-carbapenemas producing Staphylococcus aureus strain IHT 99040 assessed as reduction in bacterial growth incubated for 48 hrs by microdilution method; format: functional
Enterococcus faecium [19] = assay: Antimicrobial activity against extended spectrum-lactamase-carbapenemas producing Enterococcus faecium strain TUH.50-22 assessed as reduction in bacterial growth incubated for 48 hrs by microdilution method; format: functional
Pseudomonas aeruginosa [20] = assay: Antimicrobial activity against Pseudomonas aeruginosa PAO1 assessed as reduction in bacterial growth incubated for 48 hrs by microdilution susceptibility test; format: functional
Acinetobacter baumannii [21] = assay: Antimicrobial activity against oxacillinase-23 producing Acinetobacter baumannii K63-58 assessed as reduction in bacterial growth incubated for 48 hrs by microdilution method; format: functional
Staphylococcus aureus [22] = assay: Antimicrobial activity against extended spectrum-lactamase-carbapenemas producing Staphylococcus aureus strain WIS assessed as reduction in bacterial growth incubated for 48 hrs by microdilution method; format: functional
[23] = Antimicrobial activity against New Delhi metallo-beta lactamase-1 Klebsiella pneumoniae K66-45 assessed as reduction in bacterial growth incubated for 48 hrs by microdilution method; format: functional
Pseudomonas aeruginosa [24] = assay: Antimicrobial activity against verona integron-encoded metallo-beta-lactamase-4 producing Pseudomonas aeruginosa K34-73 assessed as reduction in bacterial growth incubated for 48 hrs by microdilution method; format: functional
Enterococcus faecium [25] = assay: Antimicrobial activity against extended spectrum-lactamase-carbapenemas producing Enterococcus faecium strain K36-18 assessed as reduction in bacterial growth incubated for 48 hrs by microdilution method; format: functional
[26] = Antimicrobial activity against oxacillinase-245 producing Klebsiella pneumoniae 50625602 assessed as reduction in bacterial growth incubated for 48 hrs by microdilution method; format: functional
Staphylococcus aureus [27] = assay: Antimicrobial activity against extended spectrum-lactamase-carbapenemas producing Staphylococcus aureus strain 85/2082 assessed as reduction in bacterial growth incubated for 48 hrs by microdilution method; format: functional
[28] = Antimicrobial activity against verona integron-encoded metallo-beta-lactamase -1 producing Klebsiella pneumoniae 50667959 assessed as reduction in bacterial growth incubated for 48 hrs by microdilution method; format: functional
Pseudomonas aeruginosa [29] = assay: Antimicrobial activity against verona integron-encoded metallo-beta-lactamase producing Pseudomonas aeruginosa 50692520 assessed as reduction in bacterial growth incubated for 48 hrs by microdilution method; format: functional
Escherichia coli [30] = assay: Antimicrobial activity against New Delhi metallo-beta lactamase-1 producing Escherichia coli 50739822 assessed as reduction in bacterial growth incubated for 48 hrs by microdilution method; format: functional
MRC5 = assay: Cytotoxicity against human MRC5 cells assessed as reduction in cell viability incubated for 24 hrs by colorimetric tetrazolium assay; format: functional, cell-based; conditions: MRC5, 24 h
[31] = test system: Corynebacterium glutamicum; assay: Antimicrobial activity against Corynebacterium glutamicum ATCC 13032 assessed as reduction in bacterial growth incubated for 48 hrs by microdilution susceptibility test; format: functional
[32] = Hemolytic activity in human erythrocytes incubated for 1 hr by microplate reader; format: functional, cell-based; conditions: erythrocyte
[33] = Antimicrobial activity against New Delhi metallo-beta lactamase-1 and oxacillinase -181 producing Klebsiella pneumoniae 50531633 assessed as reduction in bacterial growth incubated for 48 hrs by microdilution method; format: functional
[34] = Antimicrobial activity against carbapenemase producing Klebsiella pneumoniae K47-25 assessed as reduction in bacterial growth incubated for 48 hrs by microdilution method; format: functional
Escherichia coli [35] = assay: Antimicrobial activity against New Delhi metallo-beta lactamase-1 producing Escherichia coli 50676002 assessed as reduction in bacterial growth incubated for 48 hrs by microdilution method; format: functional

Row | SMILES | MIC (Enterococcus faecium [1]) [µg/mL] | MIC (Pseudomonas aeruginosa [2]) [µg/mL] | MIC (Staphylococcus aureus [3]) [µg/mL] | MIC (Acinetobacter baumannii [4]) [µg/mL] | IC50 (HepG2) [µg/mL] | MIC (Escherichia coli [5]) [µg/mL] | MIC (Escherichia coli [6]) [µg/mL] | MIC (Acinetobacter baumannii [7]) [µg/mL] | MIC (Escherichia coli [8]) [µg/mL] | MIC (Pseudomonas aeruginosa [9]) [µg/mL] | MIC (Staphylococcus aureus [10]) [µg/mL] | MIC (Escherichia coli [11]) [µg/mL] | MIC (Acinetobacter baumannii [12]) [µg/mL] | MIC (Pseudomonas aeruginosa [13]) [µg/mL] | MIC (Acinetobacter baumannii [14]) [µg/mL] | MIC (Enterococcus faecium [15]) [µg/mL] | MIC (Enterococcus faecium [16]) [µg/mL] | MIC (Staphylococcus aureus [17]) [µg/mL] | MIC (Staphylococcus aureus [18]) [µg/mL] | MIC (Enterococcus faecium [19]) [µg/mL] | other results
1 | NCCCCN1C(=O)N(CCCCN)C(=O)C(Cc2ccc(C(F)(F)F)cc2)(Cc2ccc(C(F)(F)F)cc2)C1=O.O=C(O)C(F)(F)F.O=C(O)C(F)(F)F | > 32 | > 32 | > 32 | > 32 | 40 | > 32 | 128 | > 32 | > 32 | > 32 | 64 | > 32 | > 32 | > 32 | > 32 | > 32 | > 32 | > 32 | > 32 | > 32 | MIC (Pseudomonas aeruginosa [20]): 64 µg/mL; MIC (Acinetobacter baumannii [21]): > 32 µg/mL; MIC (Staphylococcus aureus [22]): > 32 µg/mL; MIC [23]: > 32 µg/mL; MIC (Pseudomonas aeruginosa [24]): > 32 µg/mL; MIC (Enterococcus faecium [25]): > 32 µg/mL; MIC [26]: > 32 µg/mL; MIC (Staphylococcus aureus [27]): > 32 µg/mL; MIC [28]: > 32 µg/mL; MIC (Pseudomonas aeruginosa [29]): > 32 µg/mL; MIC (Escherichia coli [30]): > 32 µg/mL; IC50 (MRC5): 16 µg/mL; MIC [31]: 4 µg/mL; EC50 [32]: > 398 µg/mL; MIC [33]: > 32 µg/mL; MIC [34]: > 32 µg/mL; MIC (Escherichia coli [35]): > 32 µg/mL
2 | CC(C)(C)c1cc(CC2(Cc3cc(C(C)(C)C)cc(C(C)(C)C)c3)C(=O)N(CCCCNC(=N)N)C(=O)N(CCCCNC(=N)N)C2=O)cc(C(C)(C)C)c1.O=C(O)C(F)(F)F.O=C(O)C(F)(F)F | 2 | 16 | 4 | 4 | 15 | 8 | 4 | 4 | 16 | 16 | 1 | 8 | 4 | 16 | 4 | 2 | 2 | 2 | 2 | 2 | MIC (Pseudomonas aeruginosa [20]): 4 µg/mL; MIC (Acinetobacter baumannii [21]): 4 µg/mL; MIC (Staphylococcus aureus [22]): 2 µg/mL; MIC [23]: 8 µg/mL; MIC (Pseudomonas aeruginosa [24]): 8 µg/mL; MIC (Enterococcus faecium [25]): 2 µg/mL; MIC [26]: 16 µg/mL; MIC (Staphylococcus aureus [27]): 2 µg/mL; MIC [28]: 8 µg/mL; MIC (Pseudomonas aeruginosa [29]): 16 µg/mL; MIC (Escherichia coli [30]): 8 µg/mL; IC50 (MRC5): 17 µg/mL; MIC [31]: 0.25 µg/mL; EC50 [32]: < 6 µg/mL; MIC [33]: 16 µg/mL; MIC [34]: 16 µg/mL; MIC (Escherichia coli [35]): 16 µg/mL
3 | N=C(N)NCCCCN1C(=O)N(CCCCNC(=N)N)C(=O)C(Cc2ccc(Br)c(Cl)c2)(Cc2ccc(Br)c(Cl)c2)C1=O.O=C(O)C(F)(F)F.O=C(O)C(F)(F)F | 4 | 16 | 2 | 8 | 15 | 4 | 2 | 8 | 4 | 32 | 0.5 | 4 | 8 | 16 | 8 | 4 | 2 | 4 | 2 | 2 | MIC (Pseudomonas aeruginosa [20]): 8 µg/mL; MIC (Acinetobacter baumannii [21]): 8 µg/mL; MIC (Staphylococcus aureus [22]): 2 µg/mL; MIC [23]: 8 µg/mL; MIC (Pseudomonas aeruginosa [24]): 8 µg/mL; MIC (Enterococcus faecium [25]): 4 µg/mL; MIC [26]: 4 µg/mL; MIC (Staphylococcus aureus [27]): 2 µg/mL; MIC [28]: 8 µg/mL; MIC (Pseudomonas aeruginosa [29]): 16 µg/mL; MIC (Escherichia coli [30]): 4 µg/mL; IC50 (MRC5): 36 µg/mL; MIC [31]: 0.25 µg/mL; EC50 [32]: 77 µg/mL; MIC [33]: 4 µg/mL; MIC [34]: 4 µg/mL; MIC (Escherichia coli [35]): 4 µg/mL
